The text below walks through data of ChEMBL document CHEMBL5241075, “Advancement of chimeric hybrid drugs to cure malaria infection: An overview with special emphasis on endoperoxide pharmacophores” (Eur J Med Chem, 2021).

As a reminder, the EC50 is the concentration at which the effect is half-maximal. Broadly, the CC50 is the concentration giving 50% cytotoxicity. What is called EC90 is the concentration at which the effect reaches the 90% level. The ED50 is the midpoint of the dose-response relation. Broadly, the logP is a log measure of how a compound divides between an organic and an aqueous phase.

The test system of data set [1] is Plasmodium falciparum. Description: Potency index, ratio of artesunate IC50 to test compound IC50 for antiplasmodial activity against Plasmodium falciparum gametocytes by [3H]hypoxanthine incorporation assay. The class given is functional.
In data set [2] the test system is Plasmodium falciparum. Put plainly: Potency index, ratio of mefloquine IC50 to test compound IC50 for antiplasmodial activity against Plasmodium falciparum gametocytes by [3H]hypoxanthine incorporation assay. In kind it is functional.
Data set [3] has as its system Plasmodium falciparum. Description: Antiplasmodial activity against Plasmodium falciparum gametocytes assessed as inhibition of gametocyte activation by [3H]hypoxanthine incorporation assay. In kind it is functional, organism-based.
In data set [4] the test system is Plasmodium falciparum. Description: Antiplasmodial activity against Plasmodium falciparum gametocytes by [3H]hypoxanthine incorporation assay. The class given is functional, organism-based.
In data set [5] the test system is Plasmodium falciparum. Put plainly: Antiplasmodial activity against Plasmodium falciparum W2. In kind it is functional, organism-based.
For data set [6], the system named is Plasmodium berghei. Description: Antimalarial activity against liver stage Plasmodium berghei. The class given is functional, organism-based.
In data set [7] the test system is Caco-2. Put plainly: Cytotoxicity against human Caco-2 cells assessed as reduction in cell viability. The class given is functional.
Data set [8] has as its system Plasmodium falciparum. Description: Antiplasmodial activity against Plasmodium falciparum. The class given is functional, organism-based.
Data set [9] relates to Plasmodium berghei. Description: Antimalarial activity against Plasmodium berghei infected in mouse assessed as reduction in parasitemia. The class given is functional.
In data set [10] the test system is Plasmodium yoelii. Put plainly: Antimalarial activity against Plasmodium yoelii infected in mouse assessed as reduction in parasitemia. In kind it is functional.
A short description of data set [11]: Lipophilicity, logP of compound. Conditions: octanol/water. The class given is physicochemical.
For data set [12], the system named is Plasmodium falciparum. Description: Selectivity ratio of IC50 for antiplasmodial activity against Plasmodium falciparum W2 to IC50 for antiplasmodial activity against Plasmodium falciparum D6. In kind it is functional.
For data set [13], the system named is Plasmodium falciparum. Put plainly: Antiplasmodial activity against Plasmodium falciparum D6. In kind it is functional, organism-based.
Data set [14] relates to Human immunodeficiency virus. Description: Antiviral activity against HIV. The class given is functional, organism-based. To be noted: Human immunodeficiency virus 1.
The subject of data set [15] is Plasmodium berghei. Put plainly: Antimalarial activity against Plasmodium berghei KBG 173 infected in ICR mouse assessed as animal survival at 80 mg/kg/day, po qd administered 3 to 5 days post infection. The class given is functional, organism-based. Conditions: time 3-5 day.
Data set [16] deals with Plasmodium berghei. Put plainly: Antimalarial activity against Plasmodium berghei KBG 173 infected in ICR mouse assessed as survival time at 320 mg/kg/day, po qd administered 3 to 5 days post infection. The class given is functional. Conditions: time 3-5 day.
Data set [17] deals with Plasmodium berghei. Description: Antimalarial activity against Plasmodium berghei KBG 173 infected in ICR mouse assessed as survival time at 80 mg/kg/day, po qd administered 3 to 5 days post infection. The class given is functional. To be noted: time 3-5 day.
Data set [18] has as its system Plasmodium berghei. Description: Antimalarial activity against Plasmodium berghei KBG 173 infected in ICR mouse assessed as survival time at 20 mg/kg/day, po qd administered 3 to 5 days post infection. In kind it is functional. Conditions: time 3-5 day.
Data set [19] deals with Plasmodium berghei. Put plainly: Antimalarial activity against Plasmodium berghei KBG 173 infected in ICR mouse assessed as animal survival at 20 mg/kg/day, po qd administered 3 to 5 days post infection. Conditions: time 3-5 day. In kind it is functional, organism-based.
Data set [20] deals with Plasmodium berghei. Put plainly: Antimalarial activity against Plasmodium berghei KBG 173 infected in ICR mouse assessed as animal survival at 320 mg/kg/day, po qd administered 3 to 5 days post infection. In kind it is functional, organism-based. To be noted: time 3-5 day.
The test system of data set [21] is Plasmodium falciparum. Description: Resistance index, ratio of IC50 for antiplasmodial activity against Plasmodium falciparum K1 to IC50 for antiplasmodial activity against Plasmodium falciparum D10. In kind it is functional.
The subject of data set [22] is Plasmodium falciparum. Put plainly: Antiplasmodial activity against Plasmodium falciparum K1. In kind it is functional, organism-based. Conditions: Plasmodium falciparum, K1.
Data set [23] deals with HeLa. Description: Antiproliferative activity against human HeLa cells assessed as cell growth inhibition. Conditions: Homo sapiens, HeLa. The class given is functional, cell-based.
Data set [24] is described as follows: Therapeutic index, ratio of IC50 for antiproliferative activity against human HeLa cells to IC50 for antiplasmodial activity against Plasmodium falciparum K1. Conditions: HeLa cells, read-out: Ratio IC50. The class given is toxicity, cell-based.
Data set [25] concerns Hemozoin. Description: Inhibition of Beta-hematin in Plasmodium falciparum.
Data set [26] has as its system Plasmodium falciparum. Put plainly: Antiplasmodial activity against Plasmodium falciparum D10. In kind it is functional, organism-based. Conditions: Plasmodium falciparum, D10.
The subject of data set [27] is Plasmodium yoelii. Put plainly: Antimalarial activity against Plasmodium yoelii infected in swiss mouse assessed as reduction in parasitemia at 96 mg/kg, po relative to control. In kind it is functional. On the set-up: scale not given: the % may be the effect or the level left.
For data set [28], the system named is Plasmodium falciparum. Description: Antimalarial activity against chloroquine resistant Plasmodium falciparum FcB1. The class given is functional, organism-based.
The subject of data set [29] is Plasmodium falciparum. Description: Antiplasmodial activity against Plasmodium falciparum FcM29. The class given is functional, organism-based.

The source made the active and inactive calls. The calls are words filed in the database; no cut-off is given here. Where only a bound is given, the exact number is not on record here.

Turning to `C[C@H]1[C@@H](OC(=O)CCC(=O)O)O[C@@H]2C[C@@]3(C)CC[C@H]4[C@H](C)CC[C@@H]1[C@@]24OO3.FC(F)(F)c1ccc2c(CC3CCCCN3)c3cccc(C(F)(F)F)c3nc2c1` (centres undefined), the Ratio is 15 in [1] and 280 in [2]. The figures for the IC50 in data set [3] and in data set [4] were 20 µM and 4600 µM, respectively.

On to `COc1cc(NC(C)CCCNC(=O)C2CCC3(CC2)OOC2(OO3)C3CC4CC(C3)CC2C4)c2nccc(C(F)(F)F)c2c1` (centres undefined), for which the EC50 in data set [5] was found to be 0.06 µM; in data set [6], 4.12 µM. In addition, the CC50 in [7] was over 50000 µM.

In the case of `C[C@@H]1CC[C@H]2[C@@H](C)C(N3CCS(=O)(=O)CC3)O[C@@H]3O[C@]4(C)CC[C@@H]1[C@]32OO4` (some centres undefined), in [8], a half-maximal response (EC50) required 0.00014 µM and the EC90 worked out at 0.00255 µM. The median effective dose (ED50) in [9] turned out to be 1.5 mg/kg. For the same molecule, the ED50 in [10] is 3.9 mg/kg. The molecule further returned a logP in data set [11] of 2.49.

On to `Cc1cccc(C)c1Nc1nc(OCc2cn(CCNc3ccnc4cc(Cl)ccc34)nn2)nc(N(C)C)n1`, for which the values for the IC50 in [5] and in data set [13] were 1.69 µM and 0.98 µM, respectively. In addition, in data set [12], the “Ratio IC50” value is given as over 5.6.

With `COc1cc(NC(C)CCCNC(=O)C2CCC3(CC2)OOC2(OO3)C3CC4CC(C3)CC2C4)c2nccc(Cl)c2c1` (centres undefined), the 50% effective concentration (EC50) worked out at 0.075 µM in data set [5] and 2.81 µM in data set [6]. Moreover, the half-maximal cytotoxic concentration (CC50) in data set [7] is over 50000 µM.

On to `Cc1cn([C@H]2C[C@H](N=[N+]=[N-])[C@@H](CO[C@H]3OC4O[C@]5(C)CC[C@H]6[C@H](C)CC[C@@H]([C@H]3C)[C@@]46OO5)O2)c(=O)[nH]c1=O` (some centres undefined), for which the IC50 in data set [14] was determined as 2.86 µM.

`Clc1ccc2c(NCCNCC3CCC4(CC3)OOC3(CCCCC3)OO4)ccnc2c1`: the result in data set [15] and in [20] was Active. The figures for the Time in data set [16], in data set [17] and in data set [18] were over 31 days, 26.4 days and 15.8 days, respectively. Also, in data set [19], the result was inactive.

As for `C[C@@H]1CC[C@H]2[C@@H](C)C(OCc3ccc(C(=O)N(CCCCNc4ccnc5cc(Cl)ccc45)CC(=O)NC4CCCCC4)cc3)O[C@@H]3O[C@]4(C)CC[C@@H]1[C@]32OO4` (some centres undefined), the “Ratio IC50” value in data set [21] stood at 0.88. Also, the IC50 in data set [22] came to 0.021 µM; in data set [23] it was 0.169 µM; in data set [25] it was 0.31 equiv; in data set [26] it was 0.035 µM. In addition, the selectivity ratio in data set [24] turned out to be 8.

As for `C=C(c1ccccc1)C1COC2(CCC(NCCCCNc3ccnc4cc(Cl)ccc34)CC2)OO1` (centres undefined), in [27], the Activity is recorded as 89%.

Turning to `Cc1cccc(C)c1Nc1nc(OCc2cn(CCCNc3ccnc4cc(Cl)ccc34)nn2)nc(N(C)C)n1`, the IC50 in data set [5] was determined as 0.73 µM; in data set [13] it was 0.58 µM. Moreover, the “Ratio IC50” value in data set [12] is given as over 11.1.

For the molecule `CC(C)C1=C[C@H]2OC3(CCC(NCCNc4ccnc5cc(Cl)ccc45)CC3)OO[C@@]2(C)CC1` (some centres undefined), the IC50 in data set [8] amounted to 0.009 µM; in data set [28] it was 0.006 µM; in data set [29], 0.021 µM.

`C=C(c1ccccc1)C1COC2(CCC(NCCCNc3ccnc4cc(Cl)ccc34)CC2)OO1` (centres undefined): the Activity in [27] was determined as 89%.
